According to patent US8324258B2, “F1F0-ATPase inhibitors and related methods” (The Regents of the University of Michigan, priority 2007, dated 2012):

Assays:
[1] = system: Ramos cells; test: Cytotoxicity (cell death) in Ramos cells; format: cell-based
Experimental: (§1) The compounds listed in Table 9 were tested for activity against F1F0-ATPase by measuring ATP synthesis and ATP hydrolysis. In addition, the compounds were assessed for cytotoxicity in Ramos cells Inhibition of ATP synthesis and hydrolysis by the F1F0-ATPase and cytotoxicity in Ramos cells was measured as described in K. M. Johnson et al. Chemistry & Biology 2005, 12, 485-496.

[2] = molecular target: T1, F1F0-ATPase (Bos taurus, UniProt P13621); test: Inhibition of ATP synthesis by the F1F0-ATPase; format: biochemical; settings: IC40: concentration for 40% inhibition
Experimental: as §1

[3] = molecular target: T1, F1F0-ATPase; test: Inhibition of ATP hydrolysis by the F1F0-ATPase; format: biochemical; settings: IC40: concentration for 40% inhibition
Experimental: as §1

Compound | EC50 ([1]; Ramos cells) [µM] | ATP Synthesis (IC40 μM) [2] [µM] | ATP Hydrolysis (IC40 μM) [3] [µM] | EC50 ([1]; Homo sapiens, Ramos) [µM]
Cc1ccccc1NC(=NC(=O)c1cccc(Cl)c1)NCCc1c[nH]cn1 [III-8, (Z/E)-N-((2-(1H-imidazol-4-yl)ethylamino)(o-toluidino)methylene)-3-chlorobenzamide] | > 30 | >10 | >30 | –
CCc1ccccc1NC(=NC(=O)c1cccc(Cl)c1)NCCc1c[nH]cn1 [III-41] | > 30 | >10 | >10 | –
O=C(N=C(NCCc1c[nH]cn1)Nc1cccc2ccccc12)c1cccc(Cl)c1 [III-27, (Z/E)-N-((2-(1H-imidazol-4-yl)ethylamino)(naphthalen-1-ylamino)methylene)-3-chlorobenzamide] | > 10 | <10 | >10 | –
O=C(N=C(NCCc1c[nH]cn1)Nc1cccc(-c2ccccc2)c1)c1ccc([N+](=O)[O-])cc1 [VI-13, (Z/E)-N-((2-(1H-imidazol-4-yl)ethylamino)-(biphenyl-3-ylamino)methylene)-4-nitrobenzamide] | < 10 | <10 | >30 | –
Cc1cccc(-c2ccc(NC(=NC(=O)c3cccc(Cl)c3)NCCc3c[nH]cn3)cc2)c1 [III-31, (Z/E)-N-((2-(1H-imidazol-4-yl)ethylamino)(3′-methylbiphenyl-4-ylamino)methylene)-3-chlorobenzamide] | < 10 | >10 | >10 | –
O=C(N=C(NCCc1c[nH]cn1)Nc1ccc(-c2ccccc2)cc1)c1ccc(Cl)c(Cl)c1 [II-16, (Z/E)-N-((2-(1H-imidazol-4-yl)ethylamino)(biphenyl-4-ylamino)methylene)-3,4-dichlorobenzamide] | < 10 | <10 | <10 | –
N#Cc1cccc(-c2ccc(NC(=NC(=O)c3cccc(Cl)c3)NCCc3c[nH]cn3)cc2)c1 [III-45, (Z/E)-N-((2-(1H-imidazol-4-yl)ethylamino)(3′-cyanobiphenyl-4-ylamino)methylene)-3-chlorobenzamide] | < 10 | <10 | >30 | –
Cc1ccc(C(=O)N=C(NCCc2c[nH]cn2)Nc2ccccc2-c2ccccc2)cc1 [Compound I-5, (E/Z)—N-((2-(1H-imidazol-4-yl)ethylamino)(biphenyl-2-ylamino)methylene)-4-methylbenzamide] | > 20 | >10 | >10 | –
COc1ccc(NC(=NC(=O)c2cccc(Cl)c2)NCCc2c[nH]cn2)cc1 [III-13, (Z/E)-N-((2-(1H-imidazol-4-yl)ethylamino)(4-methoxyphenylamino)methylene)-3-chlorobenzamide] | > 30 | >10 | >30 | –
O=C(N=C(NCCc1c[nH]cn1)Nc1ccc(-c2ccccc2)cc1)c1ccc([N+](=O)[O-])cc1 [II-13, (Z/E)-N-((2-(1H-imidazol-4-yl)ethylamino)(biphenyl-4-ylamino)methylene)-4-nitrobenzamide] | > 30 | >20 | >30 | –
O=C(N=C(NCCc1c[nH]cn1)Nc1ccc(-c2ccccc2)cc1)c1cccc([N+](=O)[O-])c1 [II-12, (Z/E)-N-((2-(1H-imidazol-4-yl)ethylamino)(biphenyl-4-ylamino)methylene)-3-nitrobenzamide] | > 30 | >10 | >10 | –
O=C(N=C(NCCc1c[nH]cn1)Nc1cccc(-c2ccccc2)c1)c1cccc(C(F)(F)F)c1 [VI-3, (Z/E)-N-((2-(1H-imidazol-4-yl)ethylamino)(biphenyl-3-ylamino)methylene)-3-(trifluoromethyl)benzamide] | < 10 | <10 | >10 | –
Cc1ccc(C(=O)N=C(NCCc2c[nH]cn2)Nc2cccc(-c3ccccc3)c2)cc1 [VI-1, (Z/E)-N-((2-(1H-imidazol-4-yl)ethylamino)(biphenyl-3-ylamino)methylene)-4-methylbenzamide] | > 10 | <10 | >10 | –
O=C(N=C(NCCc1c[nH]cn1)Nc1cccc(F)c1)c1cccc(Cl)c1 [III-15, (Z/E)-N-((2-(1H-imidazol-4-yl)ethylamino)(3-fluorophenylamino)methylene)-3-chlorobenzamide] | > 30 | >20 | >30 | –
O=C(N=C(NCCc1c[nH]cn1)Nc1ccc(C(F)(F)F)cc1)c1cccc(Cl)c1 [III-25, (Z/E)-N-((2-(1H-imidazol-4-yl)ethylamino)(4-(trifluoromethyl)phenylamino)methylene)-3-chlorobenzamide] | > 10 | >10 | <10 | –
O=C(N=C(NCCc1c[nH]cn1)Nc1ccc(Cl)cc1)c1cccc(Cl)c1 [III-19, (Z/E)-N-((2-(1H-imidazol-4-yl)ethylamino)(4-chlorophenylamino)methylene)-3-chlorobenzamide] | > 10 | >10 | >30 | –
O=C(/N=C(/NCc1cccc2[nH]ccc12)Nc1ccc(-c2ccccc2)cc1)c1cccc(Cl)c1 [IV-9] | – | >20 | >30 | > 30
O=C(N=C(NCCc1c[nH]cn1)Nc1ccccc1-c1ccccc1)c1ccccc1 [Compound I-7, (Z/E)-N-((2-(1H-imidazol-4-yl)ethylamino)(biphenyl-2-ylamino)methylene)benzamide] | > 30 | >20 | >30 | –
C[C@@H](Cc1c[nH]cn1)N/C(=N/C(=O)c1cccc(Cl)c1)Nc1ccc(-c2ccccc2)cc1 [IV-5, (S,Z/E)-N-((1-(1H-imidazol-4-yl)propan-2-ylamino)(biphenyl-4-ylamino)methylene)-3-chlorobenzamide] | – | <10 | <10 | < 10
CS(=O)(=O)c1cccc(NC(=NC(=O)c2cccc(Cl)c2)NCCc2cnc[nH]2)c1 [III-37, (Z/E)-N-((2-(1H-imidazol-5-yl)ethylamino)(3-(methylsulfonyl)phenylamino)methylene)-3-chlorobenzamide] | > 30 | >20 | >30 | –
O=C(N=C(NCCc1c[nH]cn1)Nc1cccc(-c2ccccc2)c1)c1cccc(Br)c1 [VI-10, (Z/E)-N-((2-(1H-imidazol-4-yl)ethylamino)(biphenyl-3-ylamino)methylene)-3-bromobenzamide] | < 10 | <10 | >10 | –
CCc1ccc(NC(=NC(=O)c2cccc(Cl)c2)NCCc2c[nH]cn2)cc1 [III-43, (Z/E)-N-((2-(1H-imidazol-4-yl)ethylamino)(4-ethylphenylamino)methylene)-3-chlorobenzamide] | > 10 | >10 | >20 | –
Cc1cccc(NC(=NC(=O)c2cccc(Cl)c2)NCCc2c[nH]cn2)c1 [III-9, (Z/E)-N-((2-(1H-imidazol-4-yl)ethylamino)(m-toluidino)methylene)-3-chlorobenzamide] | > 30 | >10 | >20 | –
O=C(N=C(NCCc1c[nH]cn1)Nc1ccc(-c2ccccc2)cc1)c1cccc(F)c1 [II-8, (Z/E)-N-((2-(1H-imidazol-4-yl)ethylamino)(biphenyl-4-ylamino)methylene)-3-fluorobenzamide] | < 10 | >10 | >10 | –
(Z/E)-N-((2-(1H-imidazol-5-yl)ethylamino)(4-(methylsulfonyl)phenylamino)methylene)-3-chlorobenzamide [III-36] | > 30 | >20 | >30 | –
O=C(N=C(NCCc1c[nH]cn1)Nc1ccc(-c2ccccc2)cc1)c1ccc(Br)cc1 [II-11, (Z/E)-N-((2-(1H-imidazol-4-yl)ethylamino)(biphenyl-4-ylamino)methylene)-4-bromobenzamide] | > 30 | >10 | >20 | –
N#Cc1ccc(C(=O)N=C(NCCc2c[nH]cn2)Nc2cccc(-c3ccccc3)c2)cc1 [VI-6, (Z/E)-N-((2-(1H-imidazol-4-yl)ethylamino)(biphenyl-3-ylamino)methylene)-4-cyanobenzamide] | > 10 | <10 | >30 | –
Cc1cccc(C(=O)N=C(NCCc2c[nH]cn2)Nc2ccccc2-c2ccccc2)c1 [Compound I-4, (E/Z)—N-((2-(1H-imidazol-4-yl)ethylamino)(biphenyl-2-ylamino)methylene)-3-methylbenzamide] | > 20 | >10 | >20 | –
N#Cc1ccc(-c2ccc(NC(=NC(=O)c3cccc(Cl)c3)NCCc3c[nH]cn3)cc2)cc1 [III-21, (Z/E)-N-((2-(1H-imidazol-4-yl)ethylamino)(4′-cyanobiphenyl-4-ylamino)methylene)-3-chlorobenzamide] | < 10 | <10 | >30 | –
O=C(N=C(NCCc1c[nH]cn1)Nc1ccc2ccccc2c1)c1cccc(Cl)c1 [III-26, (Z/E)-N-((2-(1H-imidazol-4-yl)ethylamino)(naphthalen-2-ylamino)methylene)-3-chlorobenzamide] | > 10 | >10 | >10 | –
